Assay results reported in BindingDB's records for doi:10.1111/j.1749-6632.1998.tb10185.x (Albany Medical College, 1998).
“And” between values parts separate entries of the source, which are not always exact repeats. Equal entries are not always repeated.

Each compound was assayed against T1, 5-hydroxytryptamine receptor 2C (Rattus norvegicus, UniProt P08909).
T1 sequence (P08909 whole entry): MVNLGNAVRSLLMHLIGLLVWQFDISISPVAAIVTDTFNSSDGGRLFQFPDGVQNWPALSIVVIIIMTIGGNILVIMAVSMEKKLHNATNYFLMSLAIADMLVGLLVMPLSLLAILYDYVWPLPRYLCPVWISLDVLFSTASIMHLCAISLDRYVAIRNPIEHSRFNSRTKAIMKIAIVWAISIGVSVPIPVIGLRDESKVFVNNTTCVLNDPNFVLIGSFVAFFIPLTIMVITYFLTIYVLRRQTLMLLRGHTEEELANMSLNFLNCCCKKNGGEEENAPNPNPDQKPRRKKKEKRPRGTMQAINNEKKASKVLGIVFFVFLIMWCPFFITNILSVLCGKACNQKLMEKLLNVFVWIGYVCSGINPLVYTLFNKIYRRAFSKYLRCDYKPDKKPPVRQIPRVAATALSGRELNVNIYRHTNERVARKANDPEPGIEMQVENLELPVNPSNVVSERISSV

Compound | Ki
NCCc1c[nH]c2ccc(C(N)=O)cc12 [[3H]-5-carboxamidotryptamine] | 5810 nM
c1ccc2nc(N3CCNCC3)ccc2c1 [2-Piperazin-1-yl-quinoline (Quipazine)] | 160 nM and 1340 nM
O=C(c1ccc(F)cc1)C1CCN(CCn2c(=O)[nH]c3ccccc3c2=O)CC1 [3-(2-{4-[(4-fluorophenyl)carbonyl]piperidin-1-yl}ethyl)-1,2,3,4-tetrahydroquinazoline-2,4-dione] | 103 nM and 94 nM
CC[C@@H](CO)NC(=O)[C@@H]1C=C2c3cccc4c3c(cn4C)C[C@H]2N(C)C1 | 0.8 nM and 1 nM
